Patent publication US10597388B2, “Pyridazinone herbicides” (FMC CORPORATION, priority 2014, dated 2020)

Assays:
Experiment in all cases: Test D controlled growth environment herbicide test, pre- and postemergence
Assay type in all cases: in vivo
[1] = tested on: buckwheat, wild (wild buckwheat, Polygonum convolvulus)
How it was run: (§1)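 Pre-emergence: seeds sown in silt loam soil were sprayed with compound in a non-phytotoxic solvent mix containing surfactant. Post-emergence: plants at 2 to 18 cm (1- to 4-leaf stage) in peat moss/vermiculite medium got the same formulation. Visual 0–100 rating versus controls after 14 to 21 d.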

[2] = tested on: barley, spring (spring barley, Hordeum vulgare)
How it was run: as §1

[3] = tested on: wheat, spring (spring wheat, Triticum aestivum)
How it was run: as §1

[4] = tested on: field poppy (Papaver rhoeas)
How it was run: as §1

[5] = tested on: speedwell (bird's-eye speedwell, Veronica persica)
How it was run: as §1

[6] = tested on: ryegrass, Italian (Italian ryegrass, Lolium multiflorum)
How it was run: as §1

[7] = tested on: deadnettle (henbit deadnettle, Lamium amplexicaule)
How it was run: as §1

[8] = tested on: radish, wild (wild radish, Raphanus raphanistrum)
How it was run: as §1

[9] = tested on: windgrass (Apera spica-venti)
How it was run: as §1

[10] = tested on: oat, wild (wild oat, Avena fatua)
How it was run: as §1

[11] = tested on: Russian thistle (Salsola kali)
How it was run: as §1

[12] = tested on: canarygrass (Phalaris minor)
How it was run: as §1

[13] = tested on: oilseed rape (Brassica napus)
How it was run: as §1

[14] = Postemergence, 31 g ai/ha, scale 0 to 100 (0 no effect, 100 complete control)
[15] = Postemergence, 125 g ai/ha, visual rating on scale 0 (no effect) to 100 (complete control), 14 to 21 d
[16] = Postemergence, 250 g ai/ha, scale 0 to 100 (0 no effect, 100 complete control)
[17] = Preemergence, 62 g ai/ha, scale 0 to 100 (0 no effect, 100 complete control)
[18] = Preemergence, 125 g ai/ha, scale 0 to 100 (0 no effect, 100 complete control)
[19] = Preemergence, 250 g ai/ha, scale 0 to 100, 0 no effect, 100 complete control
[20] = postemergence, 62 g ai/ha, scale 0 to 100, 0 no effect, 100 complete control

SMILES: Cc1nn(C)c(=O)c(-c2cccc3ccc(Br)cc23)c1O [Compound 126]
- Buckwheat, Wild plant response rating [1, 14]: 70
- Plant response rating, Buckwheat, Wild [1, 15]: 100
- Plant response rating, Buckwheat, Wild [1, 16]: 100
- Plant response rating (scale of 0 to 100), Buckwheat, Wild ([1]; Preemergence, 31 g ai/ha): 0
- Plant response rating, Buckwheat, Wild [1, 17]: 0
- Plant response rating, Buckwheat, Wild [1, 18]: 10
- Plant response rating, Buckwheat, Wild [1, 19]: 25
- Plant response rating, Buckwheat, Wild [1, 20]: 100
- Barley, Spring plant response rating [2, 14]: 0
- Plant response rating, Barley, Spring [2, 15]: 10
- Plant response rating, Barley, Spring [2, 16]: 10
- Plant response rating (scale of 0 to 100), Barley, Spring ([2]; Preemergence, 31 g ai/ha): 0
- Plant response rating, Barley, Spring [2, 17]: 0
- Plant response rating, Barley, Spring [2, 18]: 0
- Plant response rating, Barley, Spring [2, 19]: 0
- Plant response rating, Barley, Spring [2, 20]: 0
- Wheat, Spring plant response rating [3, 14]: 0
- Plant response rating, Wheat, Spring [3, 15]: 0
- Plant response rating, Wheat, Spring [3, 16]: 5
- Plant response rating (scale of 0 to 100), Wheat, Spring ([3]; Preemergence, 31 g ai/ha): 0
- Plant response rating (scale of 0 to 100), Wheat, Spring ([3]; Preemergence, 62 g ai/ha): 0
- Plant response rating, Wheat, Spring [3, 18]: 0
- Plant response rating, Wheat, Spring [3, 19]: 0
- Plant response rating, Wheat, Spring [3, 20]: 0
- Field Poppy plant response rating [4, 14]: 25
- Plant response rating, Field Poppy [4, 15]: 75
- Plant response rating, Field Poppy [4, 16]: 85
- Plant response rating (scale of 0 to 100), Field Poppy ([4]; Preemergence, 31 g ai/ha): 30
- Plant response rating (scale of 0 to 100), Field Poppy ([4]; Preemergence, 62 g ai/ha): 45
- Plant response rating, Field Poppy [4, 18]: 90
- Plant response rating, Field Poppy [4, 19]: 95
- Plant response rating, Field Poppy [4, 20]: 55
- Speedwell plant response rating [5, 14]: 60
- Plant response rating, Speedwell [5, 15]: 100
- Plant response rating, Speedwell [5, 16]: 100
- Plant response rating (scale of 0 to 100), Speedwell ([5]; Preemergence, 31 g ai/ha): 70
- Plant response rating (scale of 0 to 100), Speedwell ([5]; Preemergence, 62 g ai/ha): 100
- Plant response rating, Speedwell [5, 18]: 100
- Plant response rating, Speedwell [5, 19]: 100
- Plant response rating, Speedwell [5, 20]: 65
- Ryegrass, Italian plant response rating [6, 14]: 85
- Plant response rating, Ryegrass, Italian [6, 15]: 90
- Plant response rating, Ryegrass, Italian [6, 16]: 90
- Plant response rating (scale of 0 to 100), Ryegrass, Italian ([6]; Preemergence, 31 g ai/ha): 75
- Plant response rating (scale of 0 to 100), Ryegrass, Italian ([6]; Preemergence, 62 g ai/ha): 90
- Plant response rating, Ryegrass, Italian [6, 18]: 98
- Plant response rating, Ryegrass, Italian [6, 19]: 100
- Plant response rating, Ryegrass, Italian [6, 20]: 90
- Deadnettle plant response rating [7, 14]: 40
- Plant response rating, Deadnettle [7, 15]: 80
- Plant response rating, Deadnettle [7, 16]: 85
- Plant response rating (scale of 0 to 100), Deadnettle ([7]; Preemergence, 31 g ai/ha): 0
- Plant response rating (scale of 0 to 100), Deadnettle ([7]; Preemergence, 62 g ai/ha): 45
- Plant response rating, Deadnettle [7, 18]: 70
- Plant response rating, Deadnettle [7, 19]: 80
- Plant response rating, Deadnettle [7, 20]: 70
- Radish, Wild plant response rating [8, 14]: 40
- Plant response rating, Radish, Wild [8, 15]: 75
- Plant response rating, Radish, Wild [8, 16]: 95
- Plant response rating (scale of 0 to 100), Radish, Wild ([8]; Preemergence, 31 g ai/ha): 5
- Plant response rating (scale of 0 to 100), Radish, Wild ([8]; Preemergence, 62 g ai/ha): 15
- Plant response rating, Radish, Wild [8, 18]: 75
- Plant response rating, Radish, Wild [8, 19]: 90
- Plant response rating, Radish, Wild [8, 20]: 70
- Windgrass plant response rating [9, 14]: 0
- Plant response rating, Windgrass [9, 15]: 30
- Plant response rating, Windgrass [9, 16]: 55
- Plant response rating (scale of 0 to 100), Windgrass ([9]; Preemergence, 31 g ai/ha): 25
- Plant response rating (scale of 0 to 100), Windgrass ([9]; Preemergence, 62 g ai/ha): 35
- Plant response rating, Windgrass [9, 18]: 75
- Plant response rating, Windgrass [9, 19]: 85
- Plant response rating, Windgrass [9, 20]: 20
- Oat, Wild plant response rating [10, 14]: 60
- Plant response rating, Oat, Wild [10, 15]: 80
- Plant response rating, Oat, Wild [10, 16]: 90
- Plant response rating (scale of 0 to 100), Oat, Wild ([10]; Preemergence, 31 g ai/ha): 65
- Plant response rating (scale of 0 to 100), Oat, Wild ([10]; Preemergence, 62 g ai/ha): 70
- Plant response rating, Oat, Wild [10, 18]: 80
- Plant response rating, Oat, Wild [10, 19]: 90
- Plant response rating, Oat, Wild [10, 20]: 70
- Russian Thistle plant response rating [11, 14]: 30
- Plant response rating, Russian Thistle [11, 15]: 80
- Plant response rating, Russian Thistle [11, 16]: 85
- Plant response rating (scale of 0 to 100), Russian Thistle ([11]; Preemergence, 31 g ai/ha): 0
- Plant response rating (scale of 0 to 100), Russian Thistle ([11]; Preemergence, 62 g ai/ha): 0
- Plant response rating, Russian Thistle [11, 18]: 5
- Plant response rating, Russian Thistle [11, 19]: 15
- Plant response rating, Russian Thistle [11, 20]: 40
- Canarygrass plant response rating [12, 14]: 20
- Plant response rating, Canarygrass [12, 15]: 45
- Plant response rating, Canarygrass [12, 16]: 75
- Plant response rating (scale of 0 to 100), Canarygrass ([12]; Preemergence, 31 g ai/ha): 15
- Plant response rating (scale of 0 to 100), Canarygrass ([12]; Preemergence, 62 g ai/ha): 50
- Plant response rating, Canarygrass [12, 18]: 80
- Plant response rating, Canarygrass [12, 19]: 90
- Plant response rating, Canarygrass [12, 20]: 35
- Oilseed Rape plant response rating [13, 14]: 60
- Plant response rating, Oilseed Rape [13, 15]: 75
- Plant response rating, Oilseed Rape [13, 16]: 85
- Plant response rating (scale of 0 to 100), Oilseed Rape ([13]; Preemergence, 31 g ai/ha): 0
- Plant response rating (scale of 0 to 100), Oilseed Rape ([13]; Preemergence, 62 g ai/ha): 0
- Plant response rating, Oilseed Rape [13, 18]: 15
- Plant response rating, Oilseed Rape [13, 19]: 90
- Plant response rating, Oilseed Rape [13, 20]: 65
